# Source: paper PMC10787067, “EBF2 Links KMT2D‐Mediated H3K4me1 to Suppress Pancreatic Cancer Progression via Upregulating KLLN” (Advanced Science, 2023)
# What was measured:
# H3K4me1 [1] = assay: IHC of H3K4me1 in PDX tumors; format: in vivo, Human (xenograft in immunodeficient nude mice); conditions: vs control, Figure 5O
# Description: PDAC and tumor adjacent tissues were obtained from the Second Affiliated Hospital of Nanjing Medical University. Ninety pairs of ductal adenocarcinoma and adjacent normal pancreatic tissue sections (HPanA180Su03) were obtained from Shanghai Outdo Biotech (National Human Genetic Resources Sharing Service Platform with code No. XT20‐021, Shanghai, China), under the approval by the Ethics Committee of Shanghai Outdo Biotech. IHC staining was performed on paraffin‐embedded sections of biopsies from ductal adenocarcinoma patients and controls according to standard protocols (CST). […] All pancreatic cancer tissue sections were examined by two experienced pathologists, and the EBF2, KMT2D or KLLN stained in the tissue was scored independently using the H‐score system by two pathologists blinded to the clinical data. […] For the Pearson correlation scatter plot of molecules in ductal adenocarcinoma, the H score was calculated by adding the multiplication product of the different staining intensities in category A (0–3) with the percentage of positive cells, i.e., H score (0–300 scale) = 3 × (% at 3+) + 2 × (% at 2+) + 1 × (% at 1+). […] The between‐group difference in the overall survival was evaluated by the log‐rank test. The correlation between EBF2, KMT2D, and KLLN expression in ductal adenocarcinoma was assessed via Pearson correlation analysis. […]
# SW1990 cells = assay: RNA-seq of GSK-LSD1-treated SW1990 cells; format: cell-based, Human; conditions: fold change > 1.5, p < 0.05, Figure 4A
# Source text: Total RNA was isolated from cells using RNAiso plus (Takara). The quantity and integrity of RNA were separately evaluated using the K5500 (Beijing Kaiao, China) and the Agilent 2200 TapeStation (Agilent Technologies, USA). Briefly, the mRNA was enriched by OligodT NEBNext Poly(A) mRNA Magnetic Isolation Module (NEB, USA), and then fragmented into ≈200 bp. Subsequently, the RNA fragments were subjected to first and second strand cDNA synthesis, followed by adaptor ligation and enrichment according to instructions of NEBNext Ultra RNA Library Prep Kit for Illumina. The purified library products were evaluated by the Agilent 2200 TapeStation and Qubit (Thermo Fisher Scientific, USA). The libraries were sequenced by Illumina (Illumina, USA) with paired‐end 150 bp (Ribobio, China). The clean reads were acquired after discarding low‐quality reads or those containing adapter and ploy‐N. HISAT2 was employed to calibrate clean reads to human reference genome hg38 with default parameters. HTSeq was used to convert aligned short reads into read counts for each gene model. Differential gene expression was assessed by DESeq2 using read counts as input.^[ [62] ^] The Benjamini–Hochberg multiple test correction method was employed. […] RNA‐seq data sets were available (GEO accession number GSE237363).
# H3K4me1 [2] = assay: Western blot of H3K4me1 in SW1990 cells; format: cell-based, Human
# EBF2 = assay: Co-IP with H3K4me1 antibodies from GSK-LSD1-treated SW1990 cell lysates; format: cell-based, Human; conditions: vs vehicle, Figure 5P
# Description: Co‐immunoprecipitation assay was performed as described previously.^[ [61] ^] Briefly, SW1990 cells were transfected with indicated constructs or treated with GSK‐LSD1, washed with cold phosphate buffered saline (PBS), and lysed with cold cell lysis buffer. Then, the lysates were incubated with appropriate specific antibodies or normal rabbit IgG at 4 °C overnight in constant rotation, followed by the addition of protein A/G Sepharose beads and incubation for 2 h at 4 °C. The beads were then washed five times by the lysis buffer. Bead‐bound proteins were resolved by SDS‐PAGE and detected by immunoblotting using indicated antibodies.
# PANC‐1 cells = assay: Transwell migration and invasion, PANC-1; format: cell-based, Human; conditions: 24 h, vs Vehicle, p < 0.01, Figure S4G
# Description: Cell proliferation was determined by Cell Counting Kit‐8 (CCK‐8, Yeasen) and EdU Cell Proliferation Assay kit (Ribobio, Guangzhou, China). Colony formation was observed by staining with 0.1% crystal violet (Sangon Biotechnologies Inc., Shanghai, China). Cell migration and invasion were assessed using […] pore Transwell chambers with (for invasion assay) or without Matrigel (for migration assay). For migration assay, 5 × 10^4 SW1990 or 3 × 10^4 PANC‐1 cells were seeded into the upper chamber of the Transwell apparatus (Corning, USA) in serum‐free medium, and the medium supplemented with 10% FBS was added to the bottom chamber. For invasion assay, 10 × 10^4 SW1990 or 6 × 10^4 PANC‐1 cells were seeded into the upper Corning BioCoat Matrigel invasion chamber. After 24 h, the cells on the upper surface that had not passed through the polycarbonate filter were removed using a moistened cotton swab; the cells having migrated to the lower membrane surface were fixed in 100% methanol for 10 min, stained with 0.4% crystal violet for 15 min, and counted under a microscope (Nikon, Japan) at ×100 magnification. The cells were manually counted using Image J software. Three independent experiments were performed.
# KLLN = assay: qPCR of KLLN mRNA in SW1990 cells; format: cell-based, Human; conditions: vs negative control, p < 0.01, Student's t-test, concentration not given, Figure 4E
# Description: Total RNA was extracted from cultured cells using RNAiso plus (Takara, Japan). cDNA was synthesized from every 1 µg of total RNA in reverse transcription reactions with Hifair III 1st Strand cDNA Synthesis SuperMix for qPCR (Cat No. 11 141; Yeasen, Shanghai, China). qPCR was performed with Hieff qPCR SYBR Green Master Mix (Yeasen) using a Roche LightCycler 96 Real‐Time PCR System. Cycling conditions were set at 94 °C for 15 s, 60 °C for 1 min, and 72 °C for 30 s. Each reaction was performed in triplicate. The primer sequences were as follows: KMT2D‐F: 5′‐[…]‐3′; KMT2D‐R: 5′‐[…]‐3′; EBF2‐F: 5′‐[…]‐3′; EBF2‐R: 5′‐[…]‐3′; KLLN‐F: 5′‐[…]‐3’; KLLN‐R: 5′‐[…]‐3′. β‐actin‐F: 5′‐[…]‐3′; β‐actin‐R: 5′‐[…]‐3′.
structure (smiles),measurement,setting,value
c1ccc([C@@H]2C[C@H]2NC2CCNCC2)cc1 [GSK‐LSD1],H3K4me1 expression in PDX tumors,H3K4me1 [1],significantly upregulated
same,upregulated genes overlapping between EBF2-OE and GSK-LSD1-treated cells,SW1990 cells,17
same,"H3K4me1 level, concentration dependence","H3K4me1 [2]; 0, 1, 10, or 100 µM GSK-LSD1, Figure 5E",increased the levels of H3K4me1 and KLLN in a concentration‐dependent manner
same,H3K4me1 level in Co-IP experiment,"H3K4me1 [2]; vs vehicle, concentration not given, Figure 5P",increased H3K4me1 level
same,EBF2 co-immunoprecipitated with H3K4me1,EBF2; H3K4me1 antibodies,co‐immunoprecipitated more EBF2
same,EBF2 expression,EBF2; concentration not given,without affect EBF2 expression
same,invasion,PANC‐1 cells; Transwell with Matrigel,significantly inhibited
same,migration,PANC‐1 cells; Transwell without Matrigel,significantly inhibited
same,KLLN mRNA level,KLLN,significant upregulation
